In PMC11718471 (World Journal of Diabetes, 2025):

Assays:
blood glucose = assay: Euglycemic clamp, glucose infusion rate; format: in vivo, human; details: healthy subjects, 0.2 IU/kg s.c., 8-hour euglycemic clamp, 20% dextrose, group A (target BG 2.5% below baseline), n = 15, mean ± SD
[1] = Plasma IAsp exposure during 8-hour euglycemic clamp; format: in vivo, human; details: healthy subjects, 0.2 IU/kg s.c., group A (basal BG < 4.00 mmol/L, target BG 2.5% below baseline), before PSM, n = 15, LC-MS/MS, trapezoidal, mean ± SD

With insulin aspart [IAsp] the “AUCGIR, 0-8 h” value (blood glucose; after PSM) was 1433 ± 400 mg/kg, the “AUCGIR, 0-8 h” value (blood glucose; before PSM) was 1433 ± 400 mg/kg and the “AUCIAsp, 0-8 h” value [1] was 566 ± 51 ng·h/mL.
